# Test results taken from patent US8586551B2, “18-membered macrocycles and analogs thereof” (Optimer Pharmaceuticals, Inc., priority 2005, dated 2013).
# Like-named read-outs stand apart in the source and are kept apart here.
# System: C. difficile clinical isolates
# Experiment: MIC via agar dilution versus 110 clinical isolates of C. difficile
# Format: cell-based
compound,measurement,setting,value
"CCc1c(Cl)c(O)c(Cl)c(O)c1C(=O)O[C@H]1[C@H](O)[C@H](OC)[C@H](OCC2=CC=CC[C@H](O)C(C)=C[C@H](CC)[C@@H](O[C@@H]3OC(C)(C)[C@@H](OC(=O)C(C)C)[C@H](O)[C@@H]3O)C(C)=CC(C)=CC[C@@H]([C@@H](C)O)OC2=O)O[C@@H]1C [R-Tiacumicin B, 3-[[[6-Deoxy-4-O-(3,5-dichloro-2-ethyl-4,6-dihydroxybenzoyl)-2-O-methyl-β-D-mannopyranosyl]oxy]-methyl]-12(R)-[[6-deoxy-5-C-methyl-4-O-(2-methyl-1-oxopropyl)-β-D-lyxo-hexopyranosyl]oxy]-11(S)-ethyl-8(S)-hydroxy-18(S)-(1(R)-hydroxyethyl)-9,13,15-trimethyloxacyclooctadeca-3,5,9,13,15-pentaene-2-one]",MIC,Clostridioides difficile,0.125 µg/mL
same,MIC,"Clostridioides difficile, isolate 61 5930, read-out: MIC",0.03 µg/mL
same,MIC,"Clostridioides difficile, isolate 65 5967, read-out: MIC",0.06 µg/mL
same,MIC,"Clostridioides difficile, isolate 68 6368, read-out: MIC",0.03 µg/mL
same,MIC,"Clostridioides difficile, isolate 77 6390, read-out: MIC",0.06 µg/mL
same,MIC,"Clostridioides difficile, isolate 82 6329, read-out: MIC",0.06 µg/mL
same,MIC,"Clostridioides difficile, isolate 83 6330, read-out: MIC",0.06 µg/mL
same,MIC,"Clostridioides difficile, isolate 85 6332, read-out: MIC",0.06 µg/mL
same,MIC,"Clostridioides difficile, isolate 86 6333, read-out: MIC",0.03 µg/mL
same,MIC,"Clostridioides difficile, isolate 96 6348, read-out: MIC",0.06 µg/mL
same,MIC,"Clostridioides difficile, isolate 103 6068, read-out: MIC",0.06 µg/mL
same,MIC,"Clostridioides difficile, isolate 104 6060, read-out: MIC",0.03 µg/mL
same,MIC,"Clostridioides difficile, isolate 105 6071, read-out: MIC",0.03 µg/mL
same,MIC,"Clostridioides difficile, isolate 106 6078, read-out: MIC",0.03 µg/mL
same,MIC,"Clostridioides difficile, isolate 107 6079, read-out: MIC",0.06 µg/mL
same,MIC,"Clostridioides difficile, isolate 111 6279, read-out: MIC",0.03 µg/mL
same,MIC,"Clostridioides difficile, isolate 112 6280, read-out: MIC",0.06 µg/mL
same,MIC,"Clostridioides difficile, isolate 113 6304, read-out: MIC",0.06 µg/mL
same,MIC,"Clostridioides difficile, isolate 114 386, read-out: MIC",0.06 µg/mL
same,MIC,"Clostridioides difficile, isolate 116 5702, read-out: MIC",0.06 µg/mL
same,MIC,"Clostridioides difficile, isolate 117 6026, read-out: MIC",0.06 µg/mL
same,MIC,"Clostridioides difficile, isolate 120 6057, read-out: MIC",0.03 µg/mL
same,MIC,"Clostridioides difficile, isolate 121 6072, read-out: MIC",0.06 µg/mL
same,MIC,"Clostridioides difficile, isolate AB2 1725, read-out: MIC",0.06 µg/mL
same,MIC,"Clostridioides difficile, isolate AC1 1546, read-out: MIC",0.06 µg/mL
same,MIC,"Clostridioides difficile, isolate AJ1 1557, read-out: MIC",0.06 µg/mL
same,MIC,"Clostridioides difficile, isolate AL1 1753, read-out: MIC",0.06 µg/mL
same,MIC,"Clostridioides difficile, isolate B1 832, read-out: MIC",0.06 µg/mL
same,MIC,"Clostridioides difficile, isolate BH1 4506, read-out: MIC",0.06 µg/mL
same,MIC,"Clostridioides difficile, isolate BM1 1453, read-out: MIC",0.06 µg/mL
same,MIC,"Clostridioides difficile, isolate BR1 1321, read-out: MIC",0.06 µg/mL
same,MIC,"Clostridioides difficile, isolate BT1 706, read-out: MIC",0.06 µg/mL
same,MIC,"Clostridioides difficile, isolate D1 1360, read-out: MIC",0.03 µg/mL
same,MIC,"Clostridioides difficile, isolate E1 816, read-out: MIC",0.06 µg/mL
same,MIC,"Clostridioides difficile, isolate J1 5971, read-out: MIC",0.06 µg/mL
same,MIC,"Clostridioides difficile, isolate J7 4224, read-out: MIC",0.03 µg/mL
same,MIC,"Clostridioides difficile, isolate J9 4478, read-out: MIC",0.06 µg/mL
same,MIC,"Clostridioides difficile, isolate O1 1861, read-out: MIC",0.06 µg/mL
same,MIC,"Clostridioides difficile, isolate Y1 5639, read-out: MIC",0.06 µg/mL
same,MIC,"Clostridioides difficile, isolate Y2 1459, read-out: MIC",0.06 µg/mL
same,MIC,"Clostridioides difficile, isolate Z1 3036, read-out: MIC",0.03 µg/mL
same,MIC,isolate 64 5940,0.125 µg/mL
same,MIC,isolate 67 6367,0.125 µg/mL
same,MIC,isolate 70 6376,0.125 µg/mL
same,MIC,isolate 71 6379,0.125 µg/mL
same,MIC,isolate 72 6380,0.125 µg/mL
same,MIC,isolate 75 6388,0.125 µg/mL
same,MIC,isolate 76 6389,0.125 µg/mL
same,MIC,isolate 80 6327,0.125 µg/mL
same,MIC,isolate 81 6328,0.125 µg/mL
same,MIC,isolate 84 6331,0.125 µg/mL
same,MIC,isolate 87 6334,0.125 µg/mL
same,MIC,isolate 88 6335,0.125 µg/mL
same,MIC,isolate 90 6338,0.125 µg/mL
same,MIC,isolate 91 6339,0.125 µg/mL
same,MIC,isolate 93 6341,0.125 µg/mL
same,MIC,isolate 95 6347,0.125 µg/mL
same,MIC,isolate 98 6350,0.125 µg/mL
same,MIC,isolate 100 6353,0.125 µg/mL
same,MIC,isolate A1 1535,0.125 µg/mL
same,MIC,isolate AF1 1808,0.125 µg/mL
same,MIC,isolate AG1 3044,0.125 µg/mL
same,MIC,isolate AH1 3430,0.125 µg/mL
same,MIC,isolate AN1 464,0.125 µg/mL
same,MIC,isolate AO1 287,0.125 µg/mL
same,MIC,isolate AS1 4099,0.125 µg/mL
same,MIC,isolate AT1 1216,0.125 µg/mL
same,MIC,isolate AW1 4501,0.125 µg/mL
same,MIC,isolate BE1 4307,0.125 µg/mL
same,MIC,isolate BI1 1675,0.125 µg/mL
same,MIC,isolate BK1 4291,0.125 µg/mL
same,MIC,isolate BL1 716,0.125 µg/mL
same,MIC,isolate BN1 1322,0.125 µg/mL
same,MIC,isolate BW1 3130,0.125 µg/mL
same,MIC,isolate BX1 4271,0.125 µg/mL
same,MIC,isolate CF1 5922,0.125 µg/mL
same,MIC,isolate CG1 1566,0.125 µg/mL
same,MIC,isolate CJ1 893,0.125 µg/mL
same,MIC,isolate CP1 5491,0.125 µg/mL
same,MIC,isolate F1 1015,0.125 µg/mL
same,MIC,isolate G1 1077,0.125 µg/mL
same,MIC,isolate I1 1389,0.125 µg/mL
same,MIC,isolate K1 4305,0.125 µg/mL
same,MIC,isolate K14 5780,0.125 µg/mL
same,MIC,isolate L1 1423,0.125 µg/mL
same,MIC,isolate N1 471,0.125 µg/mL
same,MIC,isolate R1 397,0.125 µg/mL
same,MIC,isolate V1 1521,0.125 µg/mL
same,MIC,isolate W1 3931,0.125 µg/mL
same,MIC,isolate X1 1890,0.125 µg/mL
